Experimental data from ChEMBL document CHEMBL4004845, “Synthesis and trypanocidal activity of a library of 4-substituted 2-(1H-pyrrolo[3,2-c]pyridin-2-yl)propan-2-ols” (Eur J Med Chem, 2017).

How the values were obtained:
[1] = Cytotoxicity against human HepG2 cells after 48 hrs by Cell Titer Glo assay; assay type: cell-based; conditions: read-out: pTC50 (converted)
[2] = test system: Trypanosoma brucei brucei; assay: Antitrypanosomal activity against Trypanosoma brucei brucei Lister 427 at 70 hrs post dose by resazurin-based assay; assay type: functional
[3] = test system: Trypanosoma brucei brucei; assay: Antitrypanosomal activity against Trypanosoma brucei brucei Lister 427 at 18 hrs post dose by resazurin-based assay; assay type: functional; conditions: Lister 427, 18 h
Trypanosoma cruzi [4] = assay: Antitrypanosomal activity against Trypanosoma cruzi Y amastigote forms infected in human U2OS cells after 96 hrs by Draq5 staining-based high content analysis; assay type: functional, cell-based
Trypanosoma cruzi [5] = assay: Antitrypanosomal activity against Trypanosoma cruzi Y amastigote forms infected in human U2OS cells after 96 hrs by Draq5 staining-based high content analysis relative to control; assay type: functional
[6] = Cytotoxicity against human U2OS cells; assay type: cell-based
[7] = Selectivity index, ratio of CC50 for human U2OS cells to EC50 for Trypanosoma cruzi Y amastigote forms infected in human U2OS cells; assay type: toxicity, cell-based; conditions: read-out: Ratio CC50/EC50

**Q.** What does the source list for `CN(C)Cc1ccc(-c2cc3c(-c4cnn(C)c4)ccnc3[nH]2)cc1`?
**A.** CC50 at 48 h [1]: 14.5 to 100 µM; pEC50 [2]: 6.16 to 9.17; EC50 [3]: ≤ 1000 nM

**Q.** Which CC50 at 48 h [1] does the source give for `CS(=O)(=O)Nc1ccc(-c2c(-c3cccnc3)oc3ncnc(N)c23)cc1` here?
**A.** The CC50 at 48 h was 14.5 to 100 µM.

**Q.** What about the pEC50 [2] of the same molecule?
**A.** The pEC50 was 6.16 to 9.17.

**Q.** And the EC50 [3]?
**A.** Its EC50 is at most 1000 nM.

**Q.** Which EC50 (Trypanosoma cruzi [4]) does the source give for `CC(C)(C)c1ccc(-c2nccc3[nH]c(C(C)(C)O)cc23)cc1` here?
**A.** The EC50 was 17 µM.

**Q.** And the Emax (Trypanosoma cruzi [5])?
**A.** Its Emax is 110%.

**Q.** What about the CC50 [6] of the same molecule?
**A.** The CC50 was 35.3 µM.

**Q.** And the selectivity ratio [7]?
**A.** Its selectivity ratio is 1.3.

**Q.** For `Cn1cc(-c2cnc3[nH]cc(-c4cccc(C#N)c4)c3c2)cn1`, which CC50 at 48 h [1] is on record?
**A.** The CC50 at 48 h was 14.5 to 100 µM.

**Q.** With `CC(C)(O)c1cc2c(-c3ccc(C#N)cc3)nccc2[nH]1` as the molecule, how does the Emax (Trypanosoma cruzi [5]) read?
**A.** The Emax was 30.6%.

**Q.** Which EC50 (Trypanosoma cruzi [4]) does the source give for `CC(C)(O)c1cc2c(-c3ccccc3)nccc2[nH]1` here?
**A.** Its EC50 is 6.5 µM.

**Q.** And the Emax (Trypanosoma cruzi [5])?
**A.** The Emax was 106%.

**Q.** What about the CC50 [6] of the same molecule?
**A.** The CC50 was 22.2 µM.

**Q.** What about the selectivity ratio [7] of the same molecule?
**A.** Its selectivity ratio is 3.4.

**Q.** Which Emax (Trypanosoma cruzi [5]) does the source give for `CC(C)(O)c1cc2c(-c3ccccc3CO)nccc2[nH]1` here?
**A.** The Emax was 30.1%.

**Q.** Which EC50 (Trypanosoma cruzi [4]) does the source give for `CC(C)(O)c1cc2c(-c3ccc(NC(=O)OCc4ccccc4)cc3)nccc2[nH]1` here?
**A.** Its EC50 is 4.5 µM.

**Q.** What about the Emax (Trypanosoma cruzi [5]) of the same molecule?
**A.** The Emax was 99.4%.

**Q.** What about the CC50 [6] of the same molecule?
**A.** The CC50 was 5.5 µM.

**Q.** What about the selectivity ratio [7] of the same molecule?
**A.** Its selectivity ratio is 1.22.

**Q.** For `CC(C)(O)c1cc2c(-c3ccsc3)nccc2[nH]1`, which EC50 (Trypanosoma cruzi [4]) is on record?
**A.** The EC50 was 106 µM.

**Q.** What about the Emax (Trypanosoma cruzi [5]) of the same molecule?
**A.** Its Emax is 72.8%.

**Q.** What about the CC50 [6] of the same molecule?
**A.** The CC50 was 199 µM.

**Q.** What about the selectivity ratio [7] of the same molecule?
**A.** The selectivity ratio was 1.6.

**Q.** With `CC(C)(O)c1cc2c(-c3ccc(-c4ccccc4)c(F)c3)nccc2[nH]1` as the molecule, how does the EC50 (Trypanosoma cruzi [4]) read?
**A.** The EC50 was 3.8 µM.

**Q.** And the Emax (Trypanosoma cruzi [5])?
**A.** The Emax was 75.7%.

**Q.** What about the CC50 [6] of the same molecule?
**A.** The CC50 was 9.1 µM.

**Q.** And the selectivity ratio [7]?
**A.** The selectivity ratio was 2.4.

**Q.** With `CC(C)(O)c1cc2c(Cl)nccc2[nH]1` as the molecule, how does the EC50 (Trypanosoma cruzi [4]) read?
**A.** Its EC50 is 70.8 µM.

**Q.** And the Emax (Trypanosoma cruzi [5])?
**A.** Its Emax is 106%.

**Q.** What about the CC50 [6] of the same molecule?
**A.** The CC50 was 15.5 µM.

**Q.** What about the selectivity ratio [7] of the same molecule?
**A.** The selectivity ratio was 0.2.

**Q.** For `COc1ccccc1-c1nccc2[nH]c(C(C)(C)O)cc12`, which EC50 (Trypanosoma cruzi [4]) is on record?
**A.** Its EC50 is 53.9 µM.

**Q.** And the Emax (Trypanosoma cruzi [5])?
**A.** Its Emax is 56.6%.

**Q.** What about the selectivity ratio [7] of the same molecule?
**A.** Its selectivity ratio is over 3.7.

**Q.** Which results are given for `Cc1occc1-c1ncc(O[C@H](CN)c2ccccc2)cc1-c1c[nH]c2ncccc12`?
**A.** CC50 at 48 h [1]: 14.5 to 100 µM; pEC50 [2]: 6.16 to 9.17; EC50 [3]: ≤ 1000 nM

**Q.** With `CC(C)(O)c1cc2c(-c3cc(C(F)(F)F)cc(C(F)(F)F)c3)nccc2[nH]1` as the molecule, how does the EC50 (Trypanosoma cruzi [4]) read?
**A.** Its EC50 is 24.3 µM.

**Q.** What about the Emax (Trypanosoma cruzi [5]) of the same molecule?
**A.** The Emax was 72.2%.

**Q.** What about the CC50 [6] of the same molecule?
**A.** Its CC50 is 59.8 µM.

**Q.** And the selectivity ratio [7]?
**A.** The selectivity ratio was 2.5.

**Q.** For `CC(C)(O)c1cc2c(-c3ccc4ccccc4c3)nccc2[nH]1`, which EC50 (Trypanosoma cruzi [4]) is on record?
**A.** Its EC50 is 20.1 µM.

**Q.** And the Emax (Trypanosoma cruzi [5])?
**A.** The Emax was 102%.

**Q.** What about the CC50 [6] of the same molecule?
**A.** Its CC50 is 22.5 µM.

**Q.** What about the selectivity ratio [7] of the same molecule?
**A.** The selectivity ratio was 1.1.

**Q.** Which EC50 (Trypanosoma cruzi [4]) does the source give for `CC(C)(O)c1cc2c(-c3ccc(F)cc3)nccc2[nH]1` here?
**A.** Its EC50 is 45.8 µM.

**Q.** And the Emax (Trypanosoma cruzi [5])?
**A.** The Emax was 75.8%.

**Q.** What about the CC50 [6] of the same molecule?
**A.** The CC50 was 93.6 µM.

**Q.** And the selectivity ratio [7]?
**A.** The selectivity ratio was 2.

**Q.** Which results are given for `CC(=O)c1ccc(-c2nccc3[nH]c(C(C)(C)O)cc23)cc1`?
**A.** EC50 (Trypanosoma cruzi [4]): 137 µM; Emax (Trypanosoma cruzi [5]): 60.9%; selectivity ratio [7]: > 1.4

**Q.** Which CC50 at 48 h [1] does the source give for `O=C(Nc1ccc(-c2ccnc3[nH]ccc23)s1)C1(Cc2ccccc2)CCCNC1` (stereo not drawn) here?
**A.** Its CC50 at 48 h is 14.5 to 100 µM.

**Q.** What about the pEC50 [2] of the same molecule?
**A.** Its pEC50 is 6.16 to 9.17.

**Q.** What about the EC50 [3] of the same molecule?
**A.** Its EC50 is at most 1000 nM.

**Q.** With `Cc1cccc(-c2nccc3[nH]c(C(C)(C)O)cc23)c1` as the molecule, how does the EC50 (Trypanosoma cruzi [4]) read?
**A.** Its EC50 is 52.3 µM.

**Q.** And the Emax (Trypanosoma cruzi [5])?
**A.** Its Emax is 101%.

**Q.** And the CC50 [6]?
**A.** The CC50 was 121 µM.

**Q.** What about the selectivity ratio [7] of the same molecule?
**A.** Its selectivity ratio is 1.7.

**Q.** With `Cc1ccc(-c2nccc3[nH]c(C(C)(C)O)cc23)cc1` as the molecule, how does the EC50 (Trypanosoma cruzi [4]) read?
**A.** The EC50 was 34.6 µM.

**Q.** And the Emax (Trypanosoma cruzi [5])?
**A.** The Emax was 86%.

**Q.** And the CC50 [6]?
**A.** The CC50 was 38.5 µM.

**Q.** And the selectivity ratio [7]?
**A.** Its selectivity ratio is 1.1.

**Q.** For `CC(C)(O)c1cc2c(-c3ccc(C(F)(F)F)cc3)nccc2[nH]1`, which EC50 (Trypanosoma cruzi [4]) is on record?
**A.** The EC50 was 40.9 µM.

**Q.** What about the Emax (Trypanosoma cruzi [5]) of the same molecule?
**A.** The Emax was 102%.

**Q.** What about the CC50 [6] of the same molecule?
**A.** Its CC50 is 72.3 µM.

**Q.** And the selectivity ratio [7]?
**A.** Its selectivity ratio is 1.5.

**Q.** For `CN(C)Cc1ccc(-c2[nH]c3ncc(C#N)cc3c2-c2ccccc2)cc1`, which CC50 at 48 h [1] is on record?
**A.** Its CC50 at 48 h is 14.5 to 100 µM.

**Q.** And the pEC50 [2]?
**A.** Its pEC50 is 6.16 to 9.17.

**Q.** And the EC50 [3]?
**A.** Its EC50 is at most 1000 nM.

**Q.** For `CC[C@@H]1COCCN1c1cc(-c2cc(OC)c3c(N)n[nH]c3c2)nc(N)n1`, which CC50 at 48 h [1] is on record?
**A.** Its CC50 at 48 h is 14.5 to 100 µM.

**Q.** What about the pEC50 [2] of the same molecule?
**A.** The pEC50 was 6.16 to 9.17.

**Q.** And the EC50 [3]?
**A.** The EC50 was at most 1000 nM.

**Q.** Which results are given for `CCSc1ccc(-c2nccc3[nH]c(C(C)(C)O)cc23)cc1`?
**A.** EC50 (Trypanosoma cruzi [4]): 9.6 µM; Emax (Trypanosoma cruzi [5]): 107%; CC50 [6]: 17.2 µM; selectivity ratio [7]: 1.8

**Q.** With `OCCn1c(CNCCCNc2nc3ccccc3[nH]2)cc2c(Cl)cc(Cl)cc21` as the molecule, how does the CC50 at 48 h [1] read?
**A.** Its CC50 at 48 h is 14.5 to 100 µM.

**Q.** What about the pEC50 [2] of the same molecule?
**A.** The pEC50 was 6.16 to 9.17.

**Q.** And the EC50 [3]?
**A.** Its EC50 is at most 1000 nM.

**Q.** For `O=C(Cn1ccnc1[N+](=O)[O-])NCc1ccccc1` [BENZNIDAZOLE], which EC50 (Trypanosoma cruzi [4]) is on record?
**A.** The EC50 was 3.6 µM.

**Q.** What about the Emax (Trypanosoma cruzi [5]) of the same molecule?
**A.** Its Emax is 102%.

**Q.** And the selectivity ratio [7]?
**A.** The selectivity ratio was over 235.

**Q.** Which CC50 at 48 h [1] does the source give for `CC(C)=Cc1cccc2c1/C(=N/Nc1ccc(S(N)(=O)=O)cc1)C(=O)N2` [GW396574X] here?
**A.** Its CC50 at 48 h is 14.5 to 100 µM.

**Q.** And the pEC50 [2]?
**A.** Its pEC50 is 6.16 to 9.17.

**Q.** What about the EC50 [3] of the same molecule?
**A.** The EC50 was at most 1000 nM.
